Data: ChEMBL document CHEMBL5291721, “A preclinical secondary pharmacology resource illuminates target-adverse drug reaction associations of marketed drugs” (Nat Commun, 2023)

Columns and labels:
[1] = biological target: Gamma-aminobutyric acid receptor subunit alpha-1/alpha-2/beta-2/gamma-2 (Homo sapiens, UniProt P14867+P18507+P47869+P47870); format: protein-complex assay
Androgen receptor = biological target: T1, Androgen receptor (Homo sapiens, UniProt P10275)
T1 sequence (P10275 whole entry): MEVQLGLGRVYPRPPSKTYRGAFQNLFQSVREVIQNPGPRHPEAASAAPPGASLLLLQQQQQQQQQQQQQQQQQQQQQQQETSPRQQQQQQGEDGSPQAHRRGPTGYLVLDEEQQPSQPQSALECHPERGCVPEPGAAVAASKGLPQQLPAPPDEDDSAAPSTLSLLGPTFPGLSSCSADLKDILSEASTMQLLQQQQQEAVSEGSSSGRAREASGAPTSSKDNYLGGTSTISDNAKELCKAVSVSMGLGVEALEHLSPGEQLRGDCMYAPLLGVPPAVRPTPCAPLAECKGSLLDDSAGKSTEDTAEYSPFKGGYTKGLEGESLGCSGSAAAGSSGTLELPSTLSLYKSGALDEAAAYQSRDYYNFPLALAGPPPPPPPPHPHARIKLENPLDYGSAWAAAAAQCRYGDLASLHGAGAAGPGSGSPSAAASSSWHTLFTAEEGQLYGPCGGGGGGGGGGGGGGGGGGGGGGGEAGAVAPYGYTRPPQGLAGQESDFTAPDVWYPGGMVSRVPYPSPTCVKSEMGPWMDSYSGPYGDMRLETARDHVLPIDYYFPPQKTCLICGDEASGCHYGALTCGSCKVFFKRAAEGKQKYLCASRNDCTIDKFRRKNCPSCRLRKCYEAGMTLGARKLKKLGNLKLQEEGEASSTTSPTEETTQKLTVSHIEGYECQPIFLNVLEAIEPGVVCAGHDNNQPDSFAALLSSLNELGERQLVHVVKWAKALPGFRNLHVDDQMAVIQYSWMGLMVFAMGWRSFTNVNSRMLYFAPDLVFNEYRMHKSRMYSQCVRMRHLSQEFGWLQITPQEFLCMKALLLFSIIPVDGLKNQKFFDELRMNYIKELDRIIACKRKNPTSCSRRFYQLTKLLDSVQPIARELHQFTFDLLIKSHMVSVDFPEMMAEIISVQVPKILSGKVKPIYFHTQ

Adenosine receptor A1 = biological target: T2, Adenosine receptor A1 (Homo sapiens, UniProt P30542)
T2 sequence (P30542 whole entry): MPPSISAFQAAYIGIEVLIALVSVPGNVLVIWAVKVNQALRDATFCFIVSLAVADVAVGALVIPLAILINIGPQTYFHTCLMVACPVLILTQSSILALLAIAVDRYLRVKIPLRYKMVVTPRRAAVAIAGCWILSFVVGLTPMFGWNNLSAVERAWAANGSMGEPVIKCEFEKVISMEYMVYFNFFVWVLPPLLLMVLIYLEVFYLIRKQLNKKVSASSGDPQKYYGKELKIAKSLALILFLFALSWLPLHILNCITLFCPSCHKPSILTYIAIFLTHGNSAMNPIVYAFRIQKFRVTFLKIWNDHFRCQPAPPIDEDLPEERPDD

[2] = biological target: Beta-2 adrenergic receptor (Homo sapiens, UniProt P07550); format: functional, cell-based
Beta-2 adrenergic receptor, sequence (P07550 whole entry): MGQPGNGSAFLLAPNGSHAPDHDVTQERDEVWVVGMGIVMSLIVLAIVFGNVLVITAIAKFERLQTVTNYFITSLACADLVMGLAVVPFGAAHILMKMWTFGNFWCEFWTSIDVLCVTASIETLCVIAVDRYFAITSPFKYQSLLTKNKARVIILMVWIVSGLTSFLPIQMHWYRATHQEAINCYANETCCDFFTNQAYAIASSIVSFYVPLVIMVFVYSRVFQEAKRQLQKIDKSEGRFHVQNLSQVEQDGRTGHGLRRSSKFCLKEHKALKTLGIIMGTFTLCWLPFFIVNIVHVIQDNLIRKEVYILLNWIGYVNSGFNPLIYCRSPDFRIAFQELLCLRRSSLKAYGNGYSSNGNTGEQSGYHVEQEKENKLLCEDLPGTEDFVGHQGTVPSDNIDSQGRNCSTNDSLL

[3] = biological target: T3, Muscarinic acetylcholine receptor M1 (Homo sapiens, UniProt P11229); format: functional
T3 sequence (P11229 whole entry): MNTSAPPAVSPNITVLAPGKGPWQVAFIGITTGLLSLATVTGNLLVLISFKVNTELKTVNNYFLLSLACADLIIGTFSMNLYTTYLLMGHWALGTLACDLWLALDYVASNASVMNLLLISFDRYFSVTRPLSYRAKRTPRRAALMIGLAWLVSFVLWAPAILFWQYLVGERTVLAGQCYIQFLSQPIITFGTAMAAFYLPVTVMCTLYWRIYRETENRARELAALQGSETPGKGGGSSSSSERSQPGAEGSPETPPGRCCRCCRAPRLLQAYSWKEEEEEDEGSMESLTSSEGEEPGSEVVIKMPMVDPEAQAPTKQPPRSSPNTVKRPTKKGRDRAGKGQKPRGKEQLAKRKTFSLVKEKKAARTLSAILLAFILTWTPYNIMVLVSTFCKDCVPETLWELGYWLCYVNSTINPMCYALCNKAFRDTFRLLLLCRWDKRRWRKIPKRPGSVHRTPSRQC

[4] = biological target: Muscarinic acetylcholine receptor M3 (Homo sapiens, UniProt P20309)
Muscarinic acetylcholine receptor M3, sequence (P20309 whole entry): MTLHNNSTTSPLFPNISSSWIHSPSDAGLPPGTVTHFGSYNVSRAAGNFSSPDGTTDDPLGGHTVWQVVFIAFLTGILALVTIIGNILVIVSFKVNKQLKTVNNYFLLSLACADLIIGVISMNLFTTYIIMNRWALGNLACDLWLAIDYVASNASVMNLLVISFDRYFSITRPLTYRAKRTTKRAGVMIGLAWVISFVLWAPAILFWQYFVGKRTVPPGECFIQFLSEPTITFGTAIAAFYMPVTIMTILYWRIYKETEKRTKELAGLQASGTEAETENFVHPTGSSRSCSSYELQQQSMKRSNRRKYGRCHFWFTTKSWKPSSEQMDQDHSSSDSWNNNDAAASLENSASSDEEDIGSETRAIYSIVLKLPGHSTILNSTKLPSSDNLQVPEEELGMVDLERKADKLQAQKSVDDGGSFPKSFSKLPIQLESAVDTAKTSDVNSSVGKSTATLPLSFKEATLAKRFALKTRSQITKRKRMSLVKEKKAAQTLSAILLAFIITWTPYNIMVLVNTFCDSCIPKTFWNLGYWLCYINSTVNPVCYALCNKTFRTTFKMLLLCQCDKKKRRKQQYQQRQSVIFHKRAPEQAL

Endothelin-1 receptor = biological target: T4, Endothelin-1 receptor (Homo sapiens, UniProt P25101)
T4 sequence (P25101 whole entry): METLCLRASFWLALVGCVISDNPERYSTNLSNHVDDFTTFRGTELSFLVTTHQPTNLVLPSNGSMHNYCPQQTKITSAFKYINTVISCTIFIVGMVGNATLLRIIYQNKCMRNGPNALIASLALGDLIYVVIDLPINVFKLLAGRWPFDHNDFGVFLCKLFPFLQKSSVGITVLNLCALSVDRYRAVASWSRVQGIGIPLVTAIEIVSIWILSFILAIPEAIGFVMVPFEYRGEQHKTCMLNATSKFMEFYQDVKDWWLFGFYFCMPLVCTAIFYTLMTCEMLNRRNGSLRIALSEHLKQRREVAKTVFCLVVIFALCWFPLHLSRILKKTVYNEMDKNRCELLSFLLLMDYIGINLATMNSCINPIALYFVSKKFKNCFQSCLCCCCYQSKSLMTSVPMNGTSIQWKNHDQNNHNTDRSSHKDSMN

Histamine H1 receptor = Histamine H1 receptor (Homo sapiens, UniProt P35367)
Histamine H1 receptor, sequence (P35367 whole entry): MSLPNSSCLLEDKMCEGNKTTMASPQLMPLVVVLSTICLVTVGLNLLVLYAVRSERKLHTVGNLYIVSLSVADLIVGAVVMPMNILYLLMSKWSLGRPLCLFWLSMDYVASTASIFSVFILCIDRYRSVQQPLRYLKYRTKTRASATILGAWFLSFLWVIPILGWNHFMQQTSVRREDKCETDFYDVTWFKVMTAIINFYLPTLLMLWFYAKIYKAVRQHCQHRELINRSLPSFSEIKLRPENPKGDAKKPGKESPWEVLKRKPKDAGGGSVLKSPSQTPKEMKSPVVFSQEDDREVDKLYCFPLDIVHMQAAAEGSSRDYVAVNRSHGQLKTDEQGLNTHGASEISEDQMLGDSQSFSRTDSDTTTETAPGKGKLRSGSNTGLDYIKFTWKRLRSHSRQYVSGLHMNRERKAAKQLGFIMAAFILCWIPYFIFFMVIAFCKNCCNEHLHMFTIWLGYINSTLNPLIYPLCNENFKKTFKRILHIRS

[5] = biological target: T5, 5-hydroxytryptamine receptor 2A (Homo sapiens, UniProt P28223); format: functional, cell-based
T5 sequence (P28223 whole entry): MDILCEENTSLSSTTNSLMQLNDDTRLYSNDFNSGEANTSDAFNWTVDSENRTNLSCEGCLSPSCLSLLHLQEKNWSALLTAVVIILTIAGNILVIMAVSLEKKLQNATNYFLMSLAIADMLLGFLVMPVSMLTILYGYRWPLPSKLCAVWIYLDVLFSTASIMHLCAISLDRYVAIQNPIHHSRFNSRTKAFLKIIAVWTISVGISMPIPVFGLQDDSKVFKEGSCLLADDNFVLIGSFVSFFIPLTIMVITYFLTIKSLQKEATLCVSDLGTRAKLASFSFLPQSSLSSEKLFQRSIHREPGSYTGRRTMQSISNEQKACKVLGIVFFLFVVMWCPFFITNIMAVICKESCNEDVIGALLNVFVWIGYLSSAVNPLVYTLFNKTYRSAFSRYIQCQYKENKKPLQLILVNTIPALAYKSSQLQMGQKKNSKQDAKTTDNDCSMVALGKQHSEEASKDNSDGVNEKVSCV

[6] = biological target: T5, 5-hydroxytryptamine receptor 2A; format: functional, cell-based; remark: listed apart in the source
Note: assay procedure not described here.

Gamma-aminobutyric acid receptor subunit alpha-1/alpha-2/beta-2/gamma-2, sequence (P14867 whole entry): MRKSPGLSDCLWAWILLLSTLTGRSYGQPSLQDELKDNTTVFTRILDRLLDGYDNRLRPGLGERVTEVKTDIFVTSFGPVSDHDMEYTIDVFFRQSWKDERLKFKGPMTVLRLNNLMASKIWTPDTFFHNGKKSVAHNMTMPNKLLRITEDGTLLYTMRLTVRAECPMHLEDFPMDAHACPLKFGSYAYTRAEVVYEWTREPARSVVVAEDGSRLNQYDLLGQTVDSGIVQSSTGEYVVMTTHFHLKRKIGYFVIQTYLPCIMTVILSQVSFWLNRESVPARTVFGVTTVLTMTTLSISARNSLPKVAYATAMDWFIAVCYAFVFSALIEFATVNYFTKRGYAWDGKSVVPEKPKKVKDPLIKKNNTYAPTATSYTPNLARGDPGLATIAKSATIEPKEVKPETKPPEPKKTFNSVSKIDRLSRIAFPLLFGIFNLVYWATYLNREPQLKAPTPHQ
Gamma-aminobutyric acid receptor subunit alpha-1/alpha-2/beta-2/gamma-2, sequence (P47870 whole entry): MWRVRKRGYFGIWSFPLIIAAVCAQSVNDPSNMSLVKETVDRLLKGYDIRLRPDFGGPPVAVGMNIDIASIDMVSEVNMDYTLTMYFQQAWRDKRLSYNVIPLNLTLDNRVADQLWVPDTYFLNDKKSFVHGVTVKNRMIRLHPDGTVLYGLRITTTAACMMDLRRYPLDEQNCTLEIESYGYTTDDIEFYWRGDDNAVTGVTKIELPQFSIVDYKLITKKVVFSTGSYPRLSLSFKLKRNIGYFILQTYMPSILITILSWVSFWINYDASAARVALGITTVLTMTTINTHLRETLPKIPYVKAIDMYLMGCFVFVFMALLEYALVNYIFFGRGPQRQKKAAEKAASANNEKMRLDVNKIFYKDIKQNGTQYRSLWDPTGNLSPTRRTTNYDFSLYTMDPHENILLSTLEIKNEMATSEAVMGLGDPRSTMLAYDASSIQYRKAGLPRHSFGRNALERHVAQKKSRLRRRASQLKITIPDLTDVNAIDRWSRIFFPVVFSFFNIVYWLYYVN
Gamma-aminobutyric acid receptor subunit alpha-1/alpha-2/beta-2/gamma-2, sequence (P18507 whole entry): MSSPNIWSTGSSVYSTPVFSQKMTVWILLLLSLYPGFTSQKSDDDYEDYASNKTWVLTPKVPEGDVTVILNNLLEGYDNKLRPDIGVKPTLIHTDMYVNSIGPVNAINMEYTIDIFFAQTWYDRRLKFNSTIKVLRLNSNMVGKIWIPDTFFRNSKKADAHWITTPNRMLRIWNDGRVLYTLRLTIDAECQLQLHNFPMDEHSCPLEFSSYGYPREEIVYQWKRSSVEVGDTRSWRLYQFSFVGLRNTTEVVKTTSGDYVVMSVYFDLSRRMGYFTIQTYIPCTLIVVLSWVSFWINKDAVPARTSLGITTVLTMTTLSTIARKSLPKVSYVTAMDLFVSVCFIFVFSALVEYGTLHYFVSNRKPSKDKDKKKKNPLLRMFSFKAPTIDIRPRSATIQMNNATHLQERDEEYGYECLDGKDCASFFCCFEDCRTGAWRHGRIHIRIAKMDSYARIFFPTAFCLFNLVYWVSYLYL
Gamma-aminobutyric acid receptor subunit alpha-1/alpha-2/beta-2/gamma-2, sequence (P47869 whole entry): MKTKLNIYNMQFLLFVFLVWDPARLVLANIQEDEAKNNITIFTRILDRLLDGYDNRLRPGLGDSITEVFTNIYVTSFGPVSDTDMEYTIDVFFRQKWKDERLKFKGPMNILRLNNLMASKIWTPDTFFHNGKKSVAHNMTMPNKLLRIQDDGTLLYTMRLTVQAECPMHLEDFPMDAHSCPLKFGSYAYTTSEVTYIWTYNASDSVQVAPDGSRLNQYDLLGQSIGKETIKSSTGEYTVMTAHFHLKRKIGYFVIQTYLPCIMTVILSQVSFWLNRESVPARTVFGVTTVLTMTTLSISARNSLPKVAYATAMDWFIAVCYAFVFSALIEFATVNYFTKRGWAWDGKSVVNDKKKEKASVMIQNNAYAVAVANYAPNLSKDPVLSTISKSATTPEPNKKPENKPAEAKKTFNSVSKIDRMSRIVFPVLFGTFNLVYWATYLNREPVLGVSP

Compound | AC50 [1] [µM] | AC50 (Androgen receptor) [µM] | further results
CC[N+](C)(CC)CCOC(=O)C(O)(c1ccccc1)C1CCCCC1 (stereo not given) [OXYPHENONIUM] | > 30 |  | 
C[C@@H]1C[C@H]2[C@@H]3C[C@H](F)C4=CC(=O)C=C[C@]4(C)[C@H]3[C@@H](O)C[C@]2(C)[C@@]1(O)C(=O)CO [PARAMETHASONE] | > 30 | 3.48 | 
COc1ccc(OC)c(C(O)C(C)N)c1 (stereo not given) [METHOXAMINE] | > 30 | > 30 | 
CC(=O)O[C@]1(C(C)=O)CC[C@H]2[C@@H]3C=C(Cl)C4=CC(=O)[C@@H]5C[C@@H]5[C@]4(C)[C@H]3CC[C@@]21C [CYPROTERONE ACETATE] |  |  | AC50 (Adenosine receptor A1): > 30 µM
Clc1ccc(C(Cn2ccnc2)OCc2csc3c(Cl)cccc23)c(Cl)c1 (stereo not given) [SERTACONAZOLE] | > 10 | 0.0201 | 
CC1(C)S[C@@H]2[C@H](/N=C/N3CCCCCC3)C(=O)N2[C@H]1C(=O)O [AMDINOCILLIN] |  |  | AC50 (Adenosine receptor A1): > 30 µM
CC1(CCN2CCCCC2)C(=O)CCc2ccccc21 (stereo not given) [NEPINALONE] | > 30 | > 30 | 
C=C1CC[C@H](O)C/C1=C/C=C1\CCC[C@]2(C)[C@@H]([C@H](C)CCCC(C)C)CC[C@@H]12 [CHOLECALCIFEROL] | > 30 |  | 
CC(C)(C)NC(=O)N[C@H](C(=O)N1C[C@H]2[C@@H]([C@H]1C(=O)NC(CC1CCC1)C(=O)C(N)=O)C2(C)C)C(C)(C)C (stereo not given in full) [BOCEPREVIR] |  | > 30 | AC50 (Adenosine receptor A1): > 30 µM
Cc1ncc2c(c1O)COC2c1ccc(Cl)cc1 (stereo not given) [CICLETANINE] | > 30 | > 30 | 
CC(=O)O[C@H]1Cc2ccccc2N(C(N)=O)c2ccccc21 [ESLICARBAZEPINE ACETATE] | > 30 | > 30 | 
CCCn1cnc2c1c(=O)n(CCCCC(C)=O)c(=O)n2C [PROPENTOFYLLINE] | > 30 | > 30 | 
Cc1ccc(C(=O)C(C)CN2CCCCC2)cc1 (stereo not given) [TOLPERISONE] | > 30 |  | 
C[C@H](CCC(=O)O)[C@H]1CC[C@H]2[C@@H]3[C@H](O)C[C@@H]4C[C@H](O)CC[C@]4(C)[C@H]3C[C@H](O)[C@]12C [CHOLIC ACID] | > 30 |  | 
O=C(O)[C@@H]1C[C@@H](O)CN1 |  | > 30 | 
NNCCc1ccccc1 [PHENELZINE] | > 30 |  | 
CNCCc1ccc(OC(=O)C(C)C)c(OC(=O)C(C)C)c1 [IBOPAMINE] |  |  | AC50 [2]: 9.93 µM; AC50 [3]: > 30 µM; AC50 [4]: > 30 µM; AC50 (Endothelin-1 receptor): > 30 µM; AC50 (Histamine H1 receptor): > 30 µM; AC50 [5]: > 30 µM; AC50 [6]: > 30 µM
CC(=O)[C@]1(N)Cc2c(O)c3c(c(O)c2[C@@H](O[C@H]2C[C@H](O)[C@H](O)CO2)C1)C(=O)c1ccccc1C3=O [AMRUBICIN] |  | > 30 | 
CN1CCCN(C(c2ccccc2)c2ccc(Cl)cc2)CC1 (stereo not given) [HOMOCHLORCYCLIZINE] |  | > 30 | 
O=C1OC(OC(=O)c2cccnc2Nc2cccc(C(F)(F)F)c2)c2ccccc21 (stereo not given) [TALNIFLUMATE] |  |  | AC50 [2]: > 30 µM; AC50 [3]: > 30 µM; AC50 [4]: > 30 µM; AC50 (Endothelin-1 receptor): > 30 µM; AC50 (Histamine H1 receptor): > 30 µM; AC50 [5]: > 30 µM; AC50 [6]: > 30 µM
